# Data as given in PMC3814616, “BRAF inhibitors suppress apoptosis through off-target inhibition of JNK signaling” (eLife, 2013).
# Key:
# TAOK2 = biological target: T1, TAOK2 (Homo sapiens, UniProt Q9UL54); experiment: Quantitative competitive binding assay (KINOMEscan); conditions: for remaining binding at 0.05 µM: read-out: Percent control (50 nM); for remaining binding at 0.2 µM: read-out: Percent control (200 nM); for remaining binding at 1 µM: read-out: Percent control (1000 nM); for remaining binding at 10 µM: read-out: Percent control (10 μM)
# T1 construct: purchased KINOMEscan (DiscoveRx), San Diego, CA
# T1 sequence (Q9UL54 1-1235): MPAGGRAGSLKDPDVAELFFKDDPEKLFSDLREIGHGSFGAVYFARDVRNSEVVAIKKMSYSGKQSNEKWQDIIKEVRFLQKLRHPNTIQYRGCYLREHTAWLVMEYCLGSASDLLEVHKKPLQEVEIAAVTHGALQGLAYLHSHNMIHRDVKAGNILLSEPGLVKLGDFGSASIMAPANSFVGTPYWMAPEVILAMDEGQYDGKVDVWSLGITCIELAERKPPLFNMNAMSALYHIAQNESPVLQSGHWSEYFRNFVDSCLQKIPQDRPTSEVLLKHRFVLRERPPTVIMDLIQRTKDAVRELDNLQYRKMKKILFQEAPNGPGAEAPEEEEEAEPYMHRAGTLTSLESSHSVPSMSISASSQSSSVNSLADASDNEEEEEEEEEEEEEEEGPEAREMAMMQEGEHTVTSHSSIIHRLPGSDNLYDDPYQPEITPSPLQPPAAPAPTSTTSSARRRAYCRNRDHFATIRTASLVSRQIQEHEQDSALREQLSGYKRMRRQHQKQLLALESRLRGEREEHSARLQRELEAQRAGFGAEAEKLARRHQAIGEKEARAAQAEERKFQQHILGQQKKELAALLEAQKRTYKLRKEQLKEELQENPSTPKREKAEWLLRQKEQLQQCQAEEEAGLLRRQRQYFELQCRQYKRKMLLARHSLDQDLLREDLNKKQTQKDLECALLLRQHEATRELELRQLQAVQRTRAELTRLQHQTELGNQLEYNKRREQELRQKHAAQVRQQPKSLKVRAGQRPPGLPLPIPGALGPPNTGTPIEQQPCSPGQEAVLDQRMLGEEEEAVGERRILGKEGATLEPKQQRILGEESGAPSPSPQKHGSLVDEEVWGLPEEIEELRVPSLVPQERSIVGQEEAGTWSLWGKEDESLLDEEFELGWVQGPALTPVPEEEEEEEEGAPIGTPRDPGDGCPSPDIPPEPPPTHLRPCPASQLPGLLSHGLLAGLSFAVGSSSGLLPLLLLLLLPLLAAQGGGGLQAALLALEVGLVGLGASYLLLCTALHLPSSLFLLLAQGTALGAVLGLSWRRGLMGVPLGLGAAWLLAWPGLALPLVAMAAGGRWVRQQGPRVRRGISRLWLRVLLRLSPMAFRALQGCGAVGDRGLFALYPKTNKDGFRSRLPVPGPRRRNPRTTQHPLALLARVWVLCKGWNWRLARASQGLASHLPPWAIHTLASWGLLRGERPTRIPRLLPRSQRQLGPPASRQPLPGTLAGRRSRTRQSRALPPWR
# MLK2 (MAP3K10) = biological target: T2, MLK2 (MAP3K10) (Homo sapiens, UniProt Q02779); experiment: as above; conditions: for remaining binding at 0.05 µM: read-out: Percent control (50 nM); for remaining binding at 0.2 µM: read-out: Percent control (200 nM); for remaining binding at 10 µM: read-out: Percent control (10 μM)
# T2 construct: purchased KINOMEscan (DiscoveRx), San Diego, CA
# MAP4K5 = biological target: T3, MAP4K5 (Homo sapiens, UniProt Q9Y4K4); experiment: as above; conditions: for IC50: estimated Kd, averaged pointwise estimates, transformed Hill equation, read-out: Calculated estimate of IC50; for remaining binding at 0.05 µM: read-out: Percent control (50 nM); for remaining binding at 0.2 µM: read-out: Percent control (200 nM); for remaining binding at 1 µM: read-out: Percent control (1000 nM); for remaining binding at 10 µM: read-out: Percent control (10 μM)
# T3 construct: purchased KINOMEscan (DiscoveRx), San Diego, CA
# NOXA = experiment: Western blot, UV-induced NOXA expression; assay type: cell-based, human; conditions: 1 μM
# [1] = tested on: phospho-MKK4 and phospho-MKK7; experiment: Western blot, UV-induced phosphorylation of MKK4 and MKK7; conditions: cSCC cell lines, HaCaT, NHEK; 1 μM
# ZAK = biological target: T4, ZAK (Homo sapiens, UniProt Q9NYL2); experiment: Quantitative competitive binding assay (KINOMEscan); conditions: for remaining binding at 0.05 µM: read-out: Percent control (50 nM); for remaining binding at 0.2 µM: read-out: Percent control (200 nM); for remaining binding at 1 µM: read-out: Percent control (1000 nM); for remaining binding at 10 µM: read-out: Percent control (10 μM)
# T4 construct: purchased KINOMEscan (DiscoveRx), San Diego, CA
# MINK (MINK1) = biological target: T5, MINK (MINK1) (Homo sapiens, UniProt Q8N4C8); experiment: as above; conditions: for remaining binding at 0.05 µM: read-out: Percent control (50 nM); for remaining binding at 0.2 µM: read-out: Percent control (200 nM); for remaining binding at 1 µM: read-out: Percent control (1000 nM); for remaining binding at 10 µM: read-out: Percent control (10 μM)
# T5 construct: purchased KINOMEscan (DiscoveRx), San Diego, CA
# LZK (MAP3K13) = biological target: T6, LZK (MAP3K13) (Homo sapiens, UniProt O43283); experiment: as above; conditions: for remaining binding at 0.05 µM: read-out: Percent control (50 nM); for remaining binding at 0.2 µM: read-out: Percent control (200 nM); for remaining binding at 1 µM: read-out: Percent control (1000 nM); for remaining binding at 10 µM: read-out: Percent control (10 μM)
# T6 construct: purchased KINOMEscan (DiscoveRx), San Diego, CA
# T6 sequence (O43283 1-966): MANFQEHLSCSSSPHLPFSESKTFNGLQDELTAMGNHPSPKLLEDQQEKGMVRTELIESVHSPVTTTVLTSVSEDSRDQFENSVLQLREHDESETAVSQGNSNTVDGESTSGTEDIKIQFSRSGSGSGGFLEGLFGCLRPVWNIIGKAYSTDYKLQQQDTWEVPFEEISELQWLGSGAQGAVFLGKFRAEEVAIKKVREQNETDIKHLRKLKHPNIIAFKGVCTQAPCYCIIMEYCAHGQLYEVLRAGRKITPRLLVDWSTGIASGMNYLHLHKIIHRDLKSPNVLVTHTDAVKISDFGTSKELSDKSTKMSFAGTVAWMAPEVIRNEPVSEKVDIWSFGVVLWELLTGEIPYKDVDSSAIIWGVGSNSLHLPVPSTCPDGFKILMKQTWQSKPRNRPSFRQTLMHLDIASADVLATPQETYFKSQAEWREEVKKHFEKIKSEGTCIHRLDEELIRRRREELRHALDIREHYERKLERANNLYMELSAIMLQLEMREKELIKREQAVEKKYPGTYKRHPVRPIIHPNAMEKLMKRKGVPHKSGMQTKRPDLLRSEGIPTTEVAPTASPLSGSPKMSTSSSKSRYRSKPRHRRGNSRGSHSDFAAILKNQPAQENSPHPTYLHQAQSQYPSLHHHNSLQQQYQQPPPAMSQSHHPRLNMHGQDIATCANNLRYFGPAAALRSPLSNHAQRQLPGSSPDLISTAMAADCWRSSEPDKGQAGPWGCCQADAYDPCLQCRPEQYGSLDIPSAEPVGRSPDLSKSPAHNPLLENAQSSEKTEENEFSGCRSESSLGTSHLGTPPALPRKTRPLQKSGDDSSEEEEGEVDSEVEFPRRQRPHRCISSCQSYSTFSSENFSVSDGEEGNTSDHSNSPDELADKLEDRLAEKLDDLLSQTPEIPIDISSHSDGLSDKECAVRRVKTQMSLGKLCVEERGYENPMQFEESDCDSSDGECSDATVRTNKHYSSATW
# [2] = estimated Kd, averaged pointwise estimates, transformed Hill equation, read-out: Calculated estimate of IC50
# T3 sequence (Q9Y4K4 whole entry): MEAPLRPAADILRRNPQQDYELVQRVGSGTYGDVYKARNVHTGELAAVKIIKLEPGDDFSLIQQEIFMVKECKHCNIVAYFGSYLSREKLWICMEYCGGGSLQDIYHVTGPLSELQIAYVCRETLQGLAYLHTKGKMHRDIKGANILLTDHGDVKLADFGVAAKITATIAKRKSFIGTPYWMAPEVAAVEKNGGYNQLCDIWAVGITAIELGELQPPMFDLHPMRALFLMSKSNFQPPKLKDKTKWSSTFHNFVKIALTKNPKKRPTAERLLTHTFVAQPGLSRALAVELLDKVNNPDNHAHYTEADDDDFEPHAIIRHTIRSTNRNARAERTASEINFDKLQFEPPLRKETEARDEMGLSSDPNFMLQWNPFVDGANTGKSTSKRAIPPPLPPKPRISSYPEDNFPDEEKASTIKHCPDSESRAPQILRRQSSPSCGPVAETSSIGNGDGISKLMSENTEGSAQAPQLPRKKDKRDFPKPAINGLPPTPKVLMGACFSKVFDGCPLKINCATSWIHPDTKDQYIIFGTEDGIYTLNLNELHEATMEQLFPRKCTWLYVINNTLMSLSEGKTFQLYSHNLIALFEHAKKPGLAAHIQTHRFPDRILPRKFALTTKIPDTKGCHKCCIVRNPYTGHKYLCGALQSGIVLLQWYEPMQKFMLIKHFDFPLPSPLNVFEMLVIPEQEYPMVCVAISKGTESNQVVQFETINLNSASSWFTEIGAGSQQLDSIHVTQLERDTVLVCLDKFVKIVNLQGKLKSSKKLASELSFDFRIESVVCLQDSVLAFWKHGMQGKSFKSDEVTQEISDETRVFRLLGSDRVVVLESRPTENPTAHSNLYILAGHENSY
# T2 sequence (Q02779 whole entry): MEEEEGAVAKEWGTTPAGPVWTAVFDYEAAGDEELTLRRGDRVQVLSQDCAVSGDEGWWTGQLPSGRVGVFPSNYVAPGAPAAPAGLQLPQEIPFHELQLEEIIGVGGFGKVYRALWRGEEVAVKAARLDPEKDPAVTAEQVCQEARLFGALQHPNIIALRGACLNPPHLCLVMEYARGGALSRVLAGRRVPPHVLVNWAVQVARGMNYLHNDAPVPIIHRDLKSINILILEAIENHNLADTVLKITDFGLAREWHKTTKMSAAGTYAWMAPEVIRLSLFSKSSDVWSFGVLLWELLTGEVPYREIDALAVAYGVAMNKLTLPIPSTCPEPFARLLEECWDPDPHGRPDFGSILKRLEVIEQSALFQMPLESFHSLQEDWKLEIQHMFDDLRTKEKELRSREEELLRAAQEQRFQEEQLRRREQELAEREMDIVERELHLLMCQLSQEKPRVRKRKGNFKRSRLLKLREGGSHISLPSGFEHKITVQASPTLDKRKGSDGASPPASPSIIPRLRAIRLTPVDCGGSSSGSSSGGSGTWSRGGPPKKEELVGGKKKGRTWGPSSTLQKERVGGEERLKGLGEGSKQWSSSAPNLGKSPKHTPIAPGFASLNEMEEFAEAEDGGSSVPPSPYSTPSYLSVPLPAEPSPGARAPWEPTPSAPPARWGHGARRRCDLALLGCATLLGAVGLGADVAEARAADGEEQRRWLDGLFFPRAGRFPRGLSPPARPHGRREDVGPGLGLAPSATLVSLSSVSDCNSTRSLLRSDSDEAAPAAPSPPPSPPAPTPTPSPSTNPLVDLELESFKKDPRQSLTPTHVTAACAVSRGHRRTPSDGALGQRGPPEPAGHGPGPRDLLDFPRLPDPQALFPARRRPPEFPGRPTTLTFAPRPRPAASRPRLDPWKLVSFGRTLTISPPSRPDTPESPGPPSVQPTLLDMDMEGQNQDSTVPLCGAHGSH
# T5 sequence (Q8N4C8 whole entry): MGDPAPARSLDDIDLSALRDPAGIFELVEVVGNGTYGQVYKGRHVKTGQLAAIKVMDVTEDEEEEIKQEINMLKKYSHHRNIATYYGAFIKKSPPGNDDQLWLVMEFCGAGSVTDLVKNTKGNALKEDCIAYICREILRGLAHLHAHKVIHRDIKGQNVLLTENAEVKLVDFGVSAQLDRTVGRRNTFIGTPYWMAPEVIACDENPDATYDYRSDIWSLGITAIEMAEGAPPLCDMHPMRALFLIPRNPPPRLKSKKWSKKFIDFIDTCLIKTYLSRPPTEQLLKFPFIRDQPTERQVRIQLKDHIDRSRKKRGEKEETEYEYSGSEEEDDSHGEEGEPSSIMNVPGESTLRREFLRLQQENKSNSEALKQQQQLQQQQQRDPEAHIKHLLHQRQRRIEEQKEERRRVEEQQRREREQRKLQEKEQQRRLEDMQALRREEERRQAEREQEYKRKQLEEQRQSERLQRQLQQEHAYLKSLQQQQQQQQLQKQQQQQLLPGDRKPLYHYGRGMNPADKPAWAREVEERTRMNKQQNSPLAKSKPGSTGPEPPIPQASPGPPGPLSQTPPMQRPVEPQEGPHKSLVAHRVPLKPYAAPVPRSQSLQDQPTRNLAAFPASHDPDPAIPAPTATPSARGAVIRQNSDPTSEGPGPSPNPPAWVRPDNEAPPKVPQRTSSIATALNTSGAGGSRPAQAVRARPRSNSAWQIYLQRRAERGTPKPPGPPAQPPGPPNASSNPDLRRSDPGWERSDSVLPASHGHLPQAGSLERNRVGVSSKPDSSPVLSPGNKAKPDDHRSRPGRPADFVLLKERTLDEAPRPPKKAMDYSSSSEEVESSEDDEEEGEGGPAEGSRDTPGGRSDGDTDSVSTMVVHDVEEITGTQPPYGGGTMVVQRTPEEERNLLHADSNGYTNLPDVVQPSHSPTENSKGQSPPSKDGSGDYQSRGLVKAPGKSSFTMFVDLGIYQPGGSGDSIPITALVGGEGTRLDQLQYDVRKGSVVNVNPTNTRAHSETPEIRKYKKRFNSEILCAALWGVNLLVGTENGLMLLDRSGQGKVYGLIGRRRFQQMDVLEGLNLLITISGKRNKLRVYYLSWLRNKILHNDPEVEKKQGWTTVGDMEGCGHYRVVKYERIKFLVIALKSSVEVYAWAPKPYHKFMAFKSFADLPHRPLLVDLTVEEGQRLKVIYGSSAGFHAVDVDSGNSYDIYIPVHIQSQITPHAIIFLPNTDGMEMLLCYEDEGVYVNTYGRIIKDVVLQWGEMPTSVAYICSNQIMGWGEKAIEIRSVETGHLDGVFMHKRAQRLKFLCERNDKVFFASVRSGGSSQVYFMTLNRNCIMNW
# T4 sequence (Q9NYL2 whole entry): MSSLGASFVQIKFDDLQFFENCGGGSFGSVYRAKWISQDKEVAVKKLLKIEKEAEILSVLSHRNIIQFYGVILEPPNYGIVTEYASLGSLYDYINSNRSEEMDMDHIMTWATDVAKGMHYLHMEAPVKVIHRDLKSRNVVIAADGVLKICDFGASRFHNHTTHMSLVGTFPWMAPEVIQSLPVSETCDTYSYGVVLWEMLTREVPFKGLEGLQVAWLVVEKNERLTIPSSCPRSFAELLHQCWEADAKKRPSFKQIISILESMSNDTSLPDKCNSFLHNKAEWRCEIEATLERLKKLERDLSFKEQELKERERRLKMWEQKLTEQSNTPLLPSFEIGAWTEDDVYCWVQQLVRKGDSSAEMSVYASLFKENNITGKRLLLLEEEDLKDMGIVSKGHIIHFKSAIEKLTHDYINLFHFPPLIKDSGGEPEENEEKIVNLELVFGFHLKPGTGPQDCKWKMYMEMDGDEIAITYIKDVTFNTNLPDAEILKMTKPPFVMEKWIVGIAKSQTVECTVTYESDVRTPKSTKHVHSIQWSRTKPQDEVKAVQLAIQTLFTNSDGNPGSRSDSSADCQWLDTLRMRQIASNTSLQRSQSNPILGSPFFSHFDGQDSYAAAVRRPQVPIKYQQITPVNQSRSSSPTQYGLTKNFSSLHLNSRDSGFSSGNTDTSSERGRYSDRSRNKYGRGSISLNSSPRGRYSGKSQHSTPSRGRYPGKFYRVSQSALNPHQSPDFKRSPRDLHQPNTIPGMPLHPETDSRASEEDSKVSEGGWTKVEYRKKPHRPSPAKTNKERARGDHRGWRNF
SMILES,remaining binding at 0.05 µM (TAOK2) [%],remaining binding at 0.2 µM (TAOK2) [%],remaining binding at 1 µM (TAOK2) [%],remaining binding at 10 µM (TAOK2) [%],remaining binding at 0.05 µM (MLK2 (MAP3K10)) [%],remaining binding at 0.2 µM (MLK2 (MAP3K10)) [%],remaining binding at 10 µM (MLK2 (MAP3K10)) [%],IC50 (MAP4K5) [nM],remaining binding at 0.05 µM (MAP4K5) [%],remaining binding at 0.2 µM (MAP4K5) [%],remaining binding at 1 µM (MAP4K5) [%],remaining binding at 10 µM (MAP4K5) [%],UV-induced phosphorylation of MKK4 and MKK7 [1],remaining binding at 0.05 µM (ZAK) [%],remaining binding at 0.2 µM (ZAK) [%],remaining binding at 1 µM (ZAK) [%],remaining binding at 10 µM (ZAK) [%],remaining binding at 0.05 µM (MINK (MINK1)) [%],remaining binding at 0.2 µM (MINK (MINK1)) [%],remaining binding at 1 µM (MINK (MINK1)) [%],also measured
CCCS(=O)(=O)Nc1ccc(F)c(C(=O)c2c[nH]c3ncc(Cl)cc23)c1F [PLX4720],92,100,93,51,100,82,76,1260,96,100,63,8,inhibited,20,4,0.7,0.1,89,100,98,remaining binding at 1 µM (MLK2 (MAP3K10); read-out: Percent control (1000 nM)): 100%; UV-induced NOXA expression (NOXA; cSCC and HaCaT cell lines): suppressed; remaining binding at 10 µM (MINK (MINK1)): 55%; remaining binding at 0.05 µM (LZK (MAP3K13)): 94%; remaining binding at 0.2 µM (LZK (MAP3K13)): 100%; remaining binding at 1 µM (LZK (MAP3K13)): 96%; remaining binding at 10 µM (LZK (MAP3K13)): 75%
CCCS(=O)(=O)Nc1ccc(F)c(C(=O)c2c[nH]c3ncc(-c4ccc(Cl)cc4)cc23)c1F [vemurafenib],98,92,95,70,92,96,78,58.2,62,33,4.1,0.1,suppressed,9,1.8,0.25,0.05,100,100,91,IC50 (TAOK2; [2]): 11800 nM; NOXA induction at 24 hr post-UV irradiation (NOXA; NHEK): diminished; IC50 (ZAK; [2]): < 50 nM; IC50 (MINK (MINK1); [2]): 14800 nM; remaining binding at 10 µM (MINK (MINK1)): 66%; remaining binding at 0.05 µM (LZK (MAP3K13)): 100%; remaining binding at 0.2 µM (LZK (MAP3K13)): 99%; remaining binding at 1 µM (LZK (MAP3K13)): 93%; remaining binding at 10 µM (LZK (MAP3K13)): 74%
